Values quoted from earlier work in patent US20240294879A1, “STEM CELL DIFFERENTIATION AND POLYMERS” (VERTEX PHARMACEUTICALS INCORPORATED, priority 2021, published 2024).

Target: EZH2 (Homo sapiens, UniProt Q15910)
Sequence (Q15910 whole entry, species assumed): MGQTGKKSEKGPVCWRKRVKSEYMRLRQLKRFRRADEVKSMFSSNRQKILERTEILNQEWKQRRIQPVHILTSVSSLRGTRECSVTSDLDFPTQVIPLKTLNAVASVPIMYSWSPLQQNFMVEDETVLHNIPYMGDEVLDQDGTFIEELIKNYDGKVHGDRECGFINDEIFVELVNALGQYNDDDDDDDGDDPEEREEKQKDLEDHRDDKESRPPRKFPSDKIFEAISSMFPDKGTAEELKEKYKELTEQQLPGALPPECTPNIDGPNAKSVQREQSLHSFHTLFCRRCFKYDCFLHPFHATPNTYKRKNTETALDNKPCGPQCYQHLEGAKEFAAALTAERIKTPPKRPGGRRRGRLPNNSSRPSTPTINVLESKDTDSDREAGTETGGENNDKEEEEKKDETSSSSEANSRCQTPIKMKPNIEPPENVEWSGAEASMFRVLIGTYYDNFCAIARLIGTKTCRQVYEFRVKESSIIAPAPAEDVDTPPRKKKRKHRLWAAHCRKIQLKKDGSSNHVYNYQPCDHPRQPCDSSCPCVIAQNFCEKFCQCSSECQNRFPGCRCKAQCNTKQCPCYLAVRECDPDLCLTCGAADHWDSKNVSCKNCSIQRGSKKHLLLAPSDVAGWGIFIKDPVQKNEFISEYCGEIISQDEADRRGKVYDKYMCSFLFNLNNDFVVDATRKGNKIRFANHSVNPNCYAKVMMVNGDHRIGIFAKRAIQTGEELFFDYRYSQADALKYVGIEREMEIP
Sequence (O75530 whole entry partner, species assumed): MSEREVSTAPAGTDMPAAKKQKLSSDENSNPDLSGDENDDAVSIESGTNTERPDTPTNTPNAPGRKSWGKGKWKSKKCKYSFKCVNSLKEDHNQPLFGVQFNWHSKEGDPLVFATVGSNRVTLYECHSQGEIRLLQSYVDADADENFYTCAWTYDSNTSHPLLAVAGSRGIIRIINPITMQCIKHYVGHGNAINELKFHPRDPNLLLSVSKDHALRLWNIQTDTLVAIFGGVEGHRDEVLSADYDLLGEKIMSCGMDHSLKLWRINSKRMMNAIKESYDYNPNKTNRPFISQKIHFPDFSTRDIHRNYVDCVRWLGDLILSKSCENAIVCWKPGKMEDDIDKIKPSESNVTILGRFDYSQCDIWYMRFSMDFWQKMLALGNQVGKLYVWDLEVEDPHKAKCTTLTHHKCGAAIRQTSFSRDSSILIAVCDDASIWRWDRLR
Sequence (Q15022 whole entry partner, species assumed): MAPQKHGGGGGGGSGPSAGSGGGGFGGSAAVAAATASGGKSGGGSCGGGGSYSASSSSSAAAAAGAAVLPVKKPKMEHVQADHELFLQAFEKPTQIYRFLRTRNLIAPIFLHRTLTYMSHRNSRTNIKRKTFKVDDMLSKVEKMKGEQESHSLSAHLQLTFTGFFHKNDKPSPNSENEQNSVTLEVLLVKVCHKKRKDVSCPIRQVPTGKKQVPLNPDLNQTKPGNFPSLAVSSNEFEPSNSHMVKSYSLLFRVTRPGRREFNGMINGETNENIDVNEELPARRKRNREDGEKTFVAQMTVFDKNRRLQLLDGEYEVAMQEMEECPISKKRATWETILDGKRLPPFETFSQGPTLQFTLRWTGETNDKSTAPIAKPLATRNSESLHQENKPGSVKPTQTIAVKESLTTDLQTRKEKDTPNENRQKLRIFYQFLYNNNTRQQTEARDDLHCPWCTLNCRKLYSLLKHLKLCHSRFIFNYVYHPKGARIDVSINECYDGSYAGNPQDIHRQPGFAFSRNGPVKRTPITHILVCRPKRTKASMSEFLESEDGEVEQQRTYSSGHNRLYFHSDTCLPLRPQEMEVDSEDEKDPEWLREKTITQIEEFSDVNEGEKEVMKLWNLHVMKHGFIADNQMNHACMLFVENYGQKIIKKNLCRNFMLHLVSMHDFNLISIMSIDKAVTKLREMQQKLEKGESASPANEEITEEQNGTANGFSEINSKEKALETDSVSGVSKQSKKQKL

CC[C@H](C)n1cc(C)c2c(C(=O)NCc3c(C)cc(C)[nH]c3=O)cc(-c3ccc(N4CCNCC4)nc3)cc21 [GSK126]
selectivity over EZH1 (EZH2 versus EZH1): 150 fold

CCCc1cc(C)[nH]c(=O)c1CNC(=O)c1cc(-c2ccc(N3CCN(C(C)C)CC3)nc2)cc2c1cnn2C(C)C [UNC1999]
selectivity relative to GSK126 (EZH2 inhibitor): less selective
